“And” between values parts separate entries of the source, which are not always exact repeats. Identical values can stand only once.
Columns and labels:
Excretion study in rats = format: in vivo, SD rats; settings: 20 mg/kg oral; for Bile Cumulative excretion rate / Bile Excretion rate: bile duct cannulated rats; for Feces Cumulative excretion rate / Feces Excretion rate / Urine Cumulative excretion rate / Urine Excretion rate: rats
Procedure: Five SD rats were pre-adapted in separate metabolic cages with access to water and a solid diet. They were then administered a single oral dose of 20 mg/kg of ammoxetine after a 12-h fasting period and free access to water. Feces and urine samples were collected at specific time intervals: 0–5 h, 5–12 h, 12–24 h, 24–48 h, and 48–72 h post-administration. The dried fecal weights and urine volumes were measured and recorded at each sampling period. The collected feces were ground, thoroughly mixed, and then homogenized in distilled water to create a 10% homogenate, which was used as the fecal sample. In parallel, after a 12-h fasting period with free access to water, five SD rats were anesthetized, and bile duct cannulation was performed to collect bile samples. Once recovered from anesthesia, these rats received a single oral dose of 20 mg/kg of ammoxetine via oral gavage. Bile was collected at the following time points: 0–5 h, 5–12 h, 12–24 h, 24–48 h, and 48–72 h post-dosing, and its volume was measured. All collected samples were stored at −30°C until further processing. For sample processing, 100 μL of feces homogenates, urine, or bile samples were taken and mixed with 100 μL of L-phencynonate (IS, 50 ng/mL) and 300 μL of methanol. After vortexing, the mixture was centrifuged at 13,800×g for 10 min. The resulting supernatants were analyzed using an LC-MS-MS method.

CYP 3A4 = CYP 3A4 (Homo sapiens, UniProt P08684); assay: Phenotyping with recombinant human CYP 3A4; format: in vitro ADME; parameters: purchased BD (Woburn, USA); settings: 5 μmol/L, 25 pmol/mL CYP, 1 h
Sequence of CYP 3A4 (P08684 whole entry): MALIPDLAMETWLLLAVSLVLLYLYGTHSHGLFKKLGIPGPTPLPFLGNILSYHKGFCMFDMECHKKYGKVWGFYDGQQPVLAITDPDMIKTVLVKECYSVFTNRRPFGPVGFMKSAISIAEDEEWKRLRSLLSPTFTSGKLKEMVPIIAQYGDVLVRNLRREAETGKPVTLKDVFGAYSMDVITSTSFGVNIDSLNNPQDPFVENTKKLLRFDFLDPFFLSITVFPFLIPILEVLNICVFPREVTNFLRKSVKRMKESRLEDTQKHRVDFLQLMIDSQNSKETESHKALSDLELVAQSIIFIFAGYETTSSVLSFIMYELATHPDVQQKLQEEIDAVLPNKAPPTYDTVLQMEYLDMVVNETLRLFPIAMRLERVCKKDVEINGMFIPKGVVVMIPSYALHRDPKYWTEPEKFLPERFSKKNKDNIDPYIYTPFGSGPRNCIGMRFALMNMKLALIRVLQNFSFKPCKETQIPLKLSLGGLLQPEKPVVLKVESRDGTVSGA
Procedure: Ammoxetine (final concentration 5 μmol/L) was incubated with recombinant human CYP 3A4, CYP 1A2, CYP 2C9, CYP 2C19, and CYP 2D6 (final concentration 25 pmol/mL) in a 5 mmol/L K2HPO4 buffer at pH 7.4. The incubations were performed in quintuplicate. NADPH (final concentration 1 mmol/L) was added to initiate the incubation process. The mixture was then incubated at 37°C for 1 h. To stop the reaction, 200 μL of ice-cold acetonitrile/methanol (1:1, v/v) containing 500 ng/mL of L-phencynonate (IS) was added. The samples were vortexed for 2 min and centrifuged at 13,800×g and 4°C for 10 min. The supernatants obtained were analyzed using an LC-MS-MS method. To establish appropriate controls, zero-time controls and blank controls in the absence of NADPH were set up in parallel.

[1] = Hepatic microsome stability assay, RLM; format: in vitro ADME, rat; settings: rat, liver microsomes, pH 7.4; 1 μmol/L, 0.2 g/L microsomes, NADPH
Procedure: (§1) A hepatic microsome stability assay was conducted to investigate the metabolic disposition of ammoxetine. In this assay, 100 μL of ammoxetine (2.5 μmol/L) was incubated at 37°C with 100 μL of liver microsomes (RLM, DLM, MLM, or HLM) formulated in a 5 mmol/L dipotassium hydrogen phosphate (K2HPO4) buffer at pH 7.4. The concentration of microsomes was 0.5 g/L. To initiate the incubations, 50 μL of NADPH solution preincubated at 37°C was added. […] Parallel triplicate samples were prepared for each time point, including 0, 2, 5, 10, 15, 30, 60, 90, and 120 min. To stop the reactions at each time point, 250 μL of ice-cold precipitating agent (acetonitrile/methanol, 1:1, v/v) containing 500 ng/mL of L-phencynonate (IS) was added to the incubation mixture. The samples were vortexed for 2 min at 4°C and then centrifuged at 13,800×g for 10 min. The supernatants were analyzed using an LC-MS-MS approach. […]
(§2) In Formula 3, t1/2 (min) represents the half-life of ammoxetine in liver microsomes. It is calculated by dividing −0.693 by the resulting slope (k e) obtained from a natural logarithm plot of the remaining concentration of ammoxetine against incubation time. […]

RLM = assay: Hepatic microsome stability assay, RLM; format: in vitro ADME, rat; settings: predicted hepatic clearance
Procedure: as §1, §2

[2] = Hepatic microsome stability assay, DLM; format: in vitro ADME, dog; settings: beagle, dog, liver microsomes, pH 7.4; 1 μmol/L, 0.2 g/L microsomes, NADPH
Procedure: as §1, §2

DLM = assay: Hepatic microsome stability assay, DLM; format: in vitro ADME, dog; settings: predicted hepatic clearance
Procedure: as §1, §2

[3] = Hepatic microsome stability assay, HLM; format: in vitro ADME, human; settings: human, liver microsomes, pH 7.4; 1 μmol/L, 0.2 g/L microsomes, NADPH
Procedure: as §1, §2

HLM = assay: Hepatic microsome stability assay, HLM; format: in vitro ADME, human; settings: predicted hepatic clearance
Procedure: as §1, §2

With CNCC[C@H](Oc1cccc2c1OCO2)c1cccs1 [ammoxetine] as the compound, how does the “Bile Cumulative excretion rate” value (Excretion study in rats; 0–5 h) read?
The value was 0.089 ± 0.058%.

What about the “Bile Excretion rate” value (Excretion study in rats; 0–5 h) of the same compound?
The value was 0.089 ± 0.058%.

And the “Bile Cumulative excretion rate” value (Excretion study in rats; 5–12 h)?
The value was 0.271 ± 0.257%.

What about the “Bile Excretion rate” value (Excretion study in rats; 5–12 h) of the same compound?
Its value is 0.182 ± 0.212%.

And the “Bile Cumulative excretion rate” value (Excretion study in rats; 12–24 h)?
Its value is 0.420 ± 0.384%.

What about the “Bile Excretion rate” value (Excretion study in rats; 12–24 h) of the same compound?
The value was 0.149 ± 0.146%.

What about the “Bile Cumulative excretion rate” value (Excretion study in rats; 24–48 h) of the same compound?
Its value is 0.420 ± 0.384%.

What about the “Bile Excretion rate” value (Excretion study in rats; 48–72 h) of the same compound?
The value was 0.016 ± 0.016%.

What about the “Bile Cumulative excretion rate” value (Excretion study in rats; 48–72 h (at 72 h)) of the same compound?
Its value is 0.436 ± 0.400%.

And the “Feces Cumulative excretion rate” value (Excretion study in rats; 0–5 h)?
Its value is 0.010 ± 0.008%.

And the “Feces Excretion rate” value (Excretion study in rats; 0–5 h)?
Its value is 0.010 ± 0.008%.

What about the “Urine Cumulative excretion rate” value (Excretion study in rats; 0–5 h) of the same compound?
Its value is 0.116 ± 0.034%.

And the “Urine Excretion rate” value (Excretion study in rats; 0–5 h)?
The value was 0.116 ± 0.034%.

What about the “Feces Cumulative excretion rate” value (Excretion study in rats; 5–12 h) of the same compound?
Its value is 0.216 ± 0.060%.

What about the “Feces Excretion rate” value (Excretion study in rats; 5–12 h) of the same compound?
The value was 0.206 ± 0.056%.

What about the “Urine Cumulative excretion rate” value (Excretion study in rats; 5–12 h) of the same compound?
Its value is 0.223 ± 0.069%.

And the “Urine Excretion rate” value (Excretion study in rats; 5–12 h)?
Its value is 0.107 ± 0.048%.

What about the “Feces Cumulative excretion rate” value (Excretion study in rats; 12–24 h) of the same compound?
Its value is 0.361 ± 0.168%.

What about the “Feces Excretion rate” value (Excretion study in rats; 12–24 h) of the same compound?
The value was 0.145 ± 0.126%.

What about the “Urine Cumulative excretion rate” value (Excretion study in rats; 12–24 h) of the same compound?
The value was 0.273 ± 0.124%.

What about the “Urine Excretion rate” value (Excretion study in rats; 12–24 h) of the same compound?
The value was 0.050 ± 0.057%.

What about the “Feces Cumulative excretion rate” value (Excretion study in rats; 24–48 h) of the same compound?
Its value is 0.380 ± 0.180%.

What about the “Feces Excretion rate” value (Excretion study in rats; 24–48 h) of the same compound?
The value was 0.019 ± 0.016%.

And the “Urine Cumulative excretion rate” value (Excretion study in rats; 24–48 h)?
The value was 0.287 ± 0.134%.

What about the “Urine Excretion rate” value (Excretion study in rats; 24–48 h) of the same compound?
Its value is 0.014 ± 0.010%.

What about the “Feces Excretion rate” value (Excretion study in rats; 48–72 h) of the same compound?
Its value is 0.002 ± 0.003%.

And the “Urine Excretion rate” value (Excretion study in rats; 48–72 h)?
The value was 0.005 ± 0.003%.

And the “Feces Cumulative excretion rate” value (Excretion study in rats; 48–72 h (at 72 h))?
The value was 0.382 ± 0.180%.

What about the “Urine Cumulative excretion rate” value (Excretion study in rats; 48–72 h (at 72 h)) of the same compound?
The value was 0.292 ± 0.137%.

What about the Transformation ratio% (CYP 3A4) of the same compound?
Its Transformation ratio% is 24.49±3.65% and 24.49%.

What about the “residuary concentration of ammoxetine, Mean±SD” value (CYP 3A4) of the same compound?
Its value is 5.18±0.25.

And the half-life at 1 μmol/L [1]?
Its half-life at 1 μmol/L is 0.213 ± 0.0165 h.

And the CL h (RLM)?
Its CL h is 49.58 ± 0.39 mL/min/kg.

And the half-life at 1 μmol/L [2]?
Its half-life at 1 μmol/L is 2.31 ± 0.0493 h.

What about the CL h (DLM) of the same compound?
The CL h was 16.64 ± 0.17 mL/min/kg.

What about the half-life at 1 μmol/L [3] of the same compound?
The half-life at 1 μmol/L was 4.16 ± 0.101 h.

And the CL h (HLM)?
Its CL h is 9.05 ± 0.13 mL/min/kg.

Reference: article PMC11579541, “In vitro, in vivo, and in silico approaches for evaluating the preclinical DMPK profiles of ammoxetine, a novel chiral serotonin and norepinephrine reuptake inhibitor” (Frontiers in Pharmacology, 2024)
